Assay results reported in US5606037A, “Processes antineoplastic heteronaphthoquinones” (BioChem Pharma Inc., priority 1995, dated 1997).
pIC50: −log10 of the molar value. Counter-ions that a name gives are not always drawn.

Tests used:
Format in all cases: cell-based, Human
[1] = system: SKVLB (Ovarian; multidrug resistant); assay: In vitro cytotoxicity, microculture tetrazolium (MTT) assay, SKVLB; conditions: Homo sapiens; SKVLB multidrug resistant ovarian; 48 h with compound, further 48 h, MTT; Table 1
Method: (§1) The microculture tetrazolium assay was used to test in vitro cytotoxicity. This assay is described in Plumb, J. A. et al., 1989 Cancer Research 49, 4435-4440, which is herein incorporated by reference. The cytotoxicity of compounds towards tumor cells is measured in vitro using the assay. This assay method is based upon the ability of live, but not dead cells to reduce the yellow water soluble dye 3-(4,5-dimethylthiazol-2-yl)-2,5-diphenyltetrazolium bromide (MTT) to its water insoluble purple formazan product.
(§2) Human Tumor Cell lines, used were:
SKVLB (Ovarian; multidrug resistant)--Dr. V. Ling, Ontario Cancer Institute.
(§3) The cells were maintained in exponential growth in culture in minimal essential media (MEM) supplemented with non-essential amino acids, and containing 15% (v/v) fetal. bovine serum, 5 mM L-glutamine, 1 mM sodium pyruvate, and 0.1 U/ml insulin. All cell lines were grown at 37° C. in an atmosphere of 5% CO2 in air.
(§4) MTT: 2 mg/ml in phosphate buffered saline (stable at 4° C. in dark for 1 week).
(§5) Sorensen's buffer: 0.1M glycine/NaOH, pH 10.5, containing 0.1M NaCl.
(§6) Test compounds: 20 mM in DMSO and diluted to a final concentration of 200 μM in culture medium before use.
(§7) For each assay, doxorubicin is included as an inter-assay standard. This allows us to monitor the behaviour of the assay in general, and in particular, to check that the SKVLB line has maintained its resistant phenotype.
(§8) The assays are carried out in 96-well (8 well×12 well) microtiter plates. Serial dilutions of the compound are tested along the length of the plate. A 1:3 serial dilution of compound in culture medium covers a concentration range from 100 μM to 1.7 nM. Each concentration of compound is tested in quadruplet, allowing two compounds to be tested per plate. Wells containing no cells (blank) and cells with no test compound (control) are included on each plate.
(§9) Cells are plated out in 100 μl of culture medium in the microtiter plates at a density of around 1,500-4,000 cells per well. The plates are incubated overnight to allow the cells to become adherent after which the test compound is added (100 μl of appropriate dilution per well). The cells are incubated with test compound at 37° C. for 48 h after which the compound is replaced with fresh medium. After a further 48 h incubation at 37° C., 50 μl of MTT solution (2 mg/ml) is added to each well. The plates are incubated in the dark for 4 h at 37° C. after which the medium is removed. The MTT formazan product is extracted from the cells by the addition of 200 μl DMSO followed by 50 μl of Sorensen's buffer. The plates are shaken briefly and the absorbance at 570 nm is read using a Molecular Devices UV max plate reader. Curves are fit to the MTT assay data using a four parameter logistic equation, and the data are normalized to fit a 0% to 100% survival scale.

[2] = system: Lox (Melanoma); assay: In vitro cytotoxicity, microculture tetrazolium (MTT) assay, LOX; conditions: 48 h with compound, further 48 h, Table 1
Method: as §1, §2
Lox (Melanoma)--Southern Research Institute.
as §3, §4, §5, §6, §7, §8, §9

[3] = system: T47D (Ductal carcinoma of breast); assay: In vitro cytotoxicity, microculture tetrazolium (MTT) assay, T47D; conditions: 48 h with compound, further 48 h, Table 1
Method: as §1, §2
T47D (Ductal carcinoma of breast)--ATCC catalog #HTB-133.
as §3, §4, §5, §6, §7, §8, §9

[4] = system: HT 29 (Colon adenocarcinoma); assay: In vitro cytotoxicity, microculture tetrazolium (MTT) assay, HT29; conditions: further 48 h, Table 1
Method: as §1, §2
HT 29 (Colon adenocarcinoma) ATCC catalog #HTB-38.
as §3, §4, §5, §6, §7, §8, §9

[5] = system: SKOV3 (Ovarian adenocarcinoma); assay: In vitro cytotoxicity, microculture tetrazolium (MTT) assay, SKOV3; conditions: SKOV3 ovarian adenocarcinoma, 48 h with compound, further 48 h, MTT, Table 1
Method: as §1, §2
SKOV3 (Ovarian adenocarcinoma)--provided by Dr. V. Ling, Ontario Cancer Institute.
as §3, §4, §5, §6, §7, §8, §9

[6] = Homo sapiens, HT-29, 48 h with compound

Compound	pIC50 [1]	pIC50 ([2]; Homo sapiens)	pIC50 ([3]; Homo sapiens)	pIC50 [4, 6]	pIC50 ([5]; Homo sapiens, SK-OV-3)	pIC50 [2]	pIC50 [3]	pIC50 ([4]; 48 h with compound)	pIC50 [5]
CC(=O)C1CC2=C(C(=O)c3ccccc3C2=O)C(O[C@H]2C[C@H](NC(=O)C(F)(F)F)[C@H](OS(C)(=O)=O)[C@H](C)O2)O1 (mixture of isomers) [BCH2095, (1'-S, 1-S, 3-R) and (1'-S, 1-R, 3-S)-methyl-(1-[2',3',4',6' tetradeoxy-3'-trifluoroacetamido-4'-O-methane-sulfonyl-L-lyxohexopyranose)-5,10-dioxo-3,4,5,10 tetrahydronaphtho-[2,3-c]pyran-3-yl) ketone]	5.80	6.85	6.43	7.00	6.72	–	–	–	–
CC(NC(=O)C(F)(F)F)[C@H]1CC2=C(C(=O)c3ccccc3C2=O)[C@H](O[C@H]2C[C@H](O)[C@H](O)[C@H](C)O2)O1 (stereo partly drawn) [BCH2018, (1'S,1S,3R)-3-(trifluoroacetamidoethyl)-5,10-dioxo-1-(2',3',6'-trideoxy-3',4'-dihydroxy-L-lyxohexopyranose)-3,4,5,10-tetrahydro-1H-naphtho-[2,3-c]-pyran]	–	–	–	–	–	5.62	5.07	4.85	5.51
COC(=O)[C@]1(C)CC2=C(C(=O)c3ccccc3C2=O)[C@H](O[C@H]2C[C@H](NC(=O)C(F)(F)F)[C@H](O)[C@H](C)O2)O1 [BCH2081, (1'S, 1S, 3S)-1-(3'-trifluoroacetamido-2',3',6'-trideoxy-lyxohexopyranose)-3-methoxycarbonyl-3-methyl-5,10-dioxo-4,5,10-trihydro-1H-naphtho-[2,3-c]-pyran]	4.72	5.57	5.13	5.42	5.89	–	–	–	–
CC(=O)[C@@H]1CC2=C(C(=O)c3ccccc3C2=O)[C@@H](O[C@@H]2O[C@@H](C)[C@@H](O)[C@@H](O)[C@H]2I)O1 [BCH2015, (1'S,1R,3S)-methyl-(1-[2',6'-dideoxy-3',4'-dihydroxy-2'-iodo-L-lyxohexopyranose]-5,10-dioxo-3,4,5,10-tetrahydronaphtho[2,3-c]-pyran-3-yl) ketone]	5.93	5.96	6.04	6.25	6.44	–	–	–	–
COC1OC(C(=O)NCCN2CCCC2)=CC2=C1C(=O)c1ccccc1C2=O (centres unmarked) [BCH2839, 1-methoxy-3-[2-(N-pyrrolidinyl)ethylaminocarbonyl]-5,10-dioxo-5,10-dihydro-1H-naphtho-[2,3-c]-pyran hydrochloride salt]	6.34 to 6.65	6.01 to 6.58	6.54 to 7.24	6.31 to 6.76	7.34 to 7.44	–	–	–	–
CC(=O)[C@@]1(C)CC2=C(C(=O)c3ccccc3C2=O)[C@H](O[C@H]2C[C@H](NC(=O)C(F)(F)F)[C@H](O)[C@H](C)O2)O1 [BCH2082, (1'S, 1S, 3R)-1-(3'-trifluoroacetamido-2',3',6'-trideoxy-L-lyxohexopyranose)-3-acetyl-3-methyl-5,10-dioxo-4,5,10-trihydro-1H-naphtho-[2,3-c]-pyran]	5.25	5.80	5.40	5.59	5.74	–	–	–	–
C[C@@H]1O[C@@H](O[C@H]2O[C@H](COc3ccccc3)CC3=C2C(=O)c2ccccc2C3=O)C[C@H](NC(=O)C(F)(F)F)[C@@H]1O [BCH2032, (1'S, 1R, 3S)-5,10-dioxo-3-phenyloxymethyl-1-(2',3',6'-trideoxy-3'-trifluoroacetamido-L-lyxohexopyranose)-3,4,5,10-tetrahydro-1H-naphtho-[2,3-c]pyran]	4.55 to 4.75	5.29 to 5.55	4.64 to 4.80	5.03 to 5.07	4.92 to 5.22	–	–	–	–
COC(=O)[C@H](CC(C)C)NC(=O)[C@H](CO[C@H]1O[C@H](C(C)=O)CC2=C1C(=O)c1ccccc1C2=O)NC(=O)OC(C)(C)C [BCH1998, (1S,2'S,3S,5'S)-Methyl-(1-O-[N-BOC-Serine-Leucine-Me ester]-5,10-dioxo-3,4,5,10-tetrahydro-1-H-naphtho[2,3-c]pyran-3-yl) ketone]	5.78	7.20	6.94	7.44	6.90	–	–	–	–
COC(=O)[C@@]1(C)CC2=C(C(=O)c3ccccc3C2=O)[C@H](O[C@H]2C[C@H](NC(=O)C(F)(F)F)[C@H](O)[C@H](C)O2)O1 [BCH2076, (1'S,1S,3R)-1-(3'-trifluoroacetamido-2',3',6'-trideoxy-lyxo-L-hexopyranose)-3-methoxycarbonyl-3-methyl-3,4,5,10-tetrahydro-5,10-dioxo-naphtho-[2,3-c]pyran]	4.91	5.74	5.19	5.59	5.84	–	–	–	–
CC(=O)[C@@H]1CC2=C(C(=O)c3ccc(O)cc3C2=O)[C@@H](O[C@H]2C[C@H](NC(=O)C(F)(F)F)[C@H](O)[C@H](C)O2)O1 [BCH1181, (1'S,1R,3S)-Methyl (5,10-dioxo-1-(2',3',6'-trideoxy-3'-trifluoroacetamido-L-lyxohexopyranose)-7-hydroxy-3,4,5, 10-tetrahydro[2,3-C]pyran-3-yl) ketone]	5.07	5.51	5.03	6.27	5.65	–	–	–	–
CC(C)C(=O)[C@@H]1CC2=C(C(=O)c3ccccc3C2=O)[C@@H](O[C@H]2C[C@H](NC(=O)C(F)(F)F)[C@H](O)[C@H](C)O2)O1 [BCH2112, (1'S, 1R, 3S)-isopropyl-[1-(2',3',6'-trideoxy-3'-trifluoroacetamido-L-lyxohexopyranose)-5,10-dioxo-3,4,5,10-tetrahydro-1H-naphtho-[2,3-c]-pyranyl]-ketone]	5.77	6.68	6.57	7.19	6.98	–	–	–	–
COC1OC(C(=O)NCCCn2ccnc2)=CC2=C1C(=O)c1ccccc1C2=O (centres unmarked) [BCH2157, (3-N-hydrochloroimidazolylpropyl)-1-methoxy-5,10-dioxo-5,10-dihydro-1H-naphtho-[2,3-c]-pyran-3-carboxamide]	–	–	–	–	–	7.81	6.63	5.91	6.73
CC(=O)C1CC2=C(C(=O)c3ccccc3C2=O)C(O[C@H]2C[C@H](O)[C@H](O)[C@H](C)O2)O1 (mixture of isomers) [BCH2117, (1'S,1S,3R) and (1'S,1R,3S)-methyl-(1-[dideoxy-2',6'-dihydroxy-3',4'-L-lyxohexopyranose]-5,10-dioxo-3,4,5,10-tetrahydronaphtho-[2,3-c]-pyran-3-yl) ketone]	–	7.14	7.43	7.52	8.02	–	–	–	–
CC(=O)[C@H]1CC2=C(C(=O)c3ccccc3C2=O)[C@H](O[C@H]2C[C@H](NC(=O)C(F)(F)F)[C@H](OC(=O)CBr)[C@H](C)O2)O1 [BCH2105, (1'-S, 1-S, 3-R)-methyl-(1-[2',3',4',6' tetradeoxy-3'-trifluoroacetamido-4'-O-(2-bromo-acetyl)-L-lyxopyranose]-5, 10-dioxo-3,4,5,10 tetrahydronaphtho-[2,3-c]pyran-3-yl) ketone]	–	7.60	7.72	8.16	8.52	–	–	–	–
C=C(C)[C@H]1CC2=C(C(=O)c3ccccc3C2=O)[C@H](OC)O1 (relative stereo) [BCH2148, (trans)-5,10-dioxo-3-isopropenyl-1-methoxy-3,4,5,10-tetrahydro-1H-naphtho-[2,3-c]-pyran]	5.00	–	5.63	5.12	4.90	–	–	–	–
C=CCC1CC2=C(C(=O)c3ccccc3C2=O)C(OC2CC(NC(=O)C(F)(F)F)C(O)C(C)O2)O1 (centres unmarked) [BCH1648]	–	6.86	6.44	6.51	7.28	–	–	–	–
